Experimental data reported in BigSolDB 2.1.

O=C(O)CC(S)C(=O)O (stereo not drawn)
solubility (mole fraction)
Conditions | in acetone | in acetonitrile | in ethanol | in ethyl acetate | in isopropanol | in methanol | in n-butanol
278.15 K | 0.133 | 0.0114 | 0.138 | 0.0454 | 0.1 | 0.117 | 0.0909
283.15 K | 0.142 | 0.0159 | 0.154 | 0.0482 | 0.112 | 0.136 | 0.105
288.15 K | 0.149 | 0.0212 | 0.169 | 0.0515 | 0.126 | 0.157 | 0.118
293.15 K | 0.159 | 0.0296 | 0.186 | 0.0547 | 0.141 | 0.178 | 0.134
298.15 K | 0.168 | 0.0392 | 0.205 | 0.0595 | 0.156 | 0.203 | 0.153
303.15 K | 0.178 | 0.0513 | 0.224 | 0.0634 | 0.174 | 0.228 | 0.172
308.15 K | 0.19 | 0.0656 | 0.244 | 0.068 | 0.192 | 0.256 | 0.192
313.15 K | 0.202 | 0.0853 | 0.265 | 0.0732 | 0.212 | 0.285 | 0.213
318.15 K | 0.213 | 0.108 | 0.287 | 0.0787 | 0.233 | 0.314 | 0.236
323.15 K | 0.226 | 0.135 | 0.31 | 0.0849 | 0.256 | 0.345 | 0.261
328.15 K | 0.24 | 0.168 | 0.335 | 0.0915 | 0.28 | 0.379 | 0.286
333.15 K | – | 0.206 | 0.361 | 0.0991 | 0.305 | 0.412 | 0.313
